Assay results: ChEMBL document CHEMBL4376829, “Discovery and biological evaluation of vinylsulfonamide derivatives as highly potent, covalent TEAD autopalmitoylation inhibitors” (Eur J Med Chem, 2019)
The source made the active and inactive calls. The rule behind the calls is not given here.

Columns and labels:
[1] = target: Protein kinase C alpha type (Homo sapiens) (UniProt P17252); test: Inhibition of full-length recombinant human PKCalpha at 10 uM using histone H1 as substrate after 40 mins by in presence of [gamma33P]ATP by scintillation counting method relative to control
[2] = target: Mitogen-activated protein kinase kinase kinase 10 (Homo sapiens) (UniProt Q02779); test: Inhibition of recombinant human MLK2 (1 to 449 residues) at 10 uM using myelin basic protein as substrate measured after 40 mins in presence of [gamma33P]ATP by scintillation counting method relative to control
[3] = target: Serine/threonine-protein kinase 26 (Homo sapiens) (UniProt Q9P289); test: Inhibition of recombinant human MST4 (4 to 304 residues) at 10 uM using RLGRDKYKTLRQIRQ as substrate measured after 40 mins in presence of [gamma33P]ATP by scintillation counting method relative to control
[4] = target: T1, Transcriptional enhancer factor TEF-3 (Homo sapiens, UniProt Q15561); test: Inhibition of N-terminal His6-tagged human TEAD4-YBD (217 to 434 residues) expressed in Escherichia coli C43 (DE3) cells at 50 to 1000 nM preincubated for 2 hrs followed by palmitoyl alkyne-coenzyme A addition and measured after 30 mins in presence of BSA by immunoblot analysis
[5] = target: Serine/threonine-protein kinase Chk1 (Homo sapiens) (UniProt O14757); test: Inhibition of recombinant full length human CHK1 at 10 uM using KKKVSRSGLYRSPSMPENLNRPR as substrate measured after 40 mins in presence of [gamma33P]ATP by scintillation counting method relative to control
[6] = test system: Transcriptional enhancer factor TEF-3 (Homo sapiens), Q15561 [C367A]; test: Binding affinity to TEAD4-YBD C367A mutant (unknown origin) assessed as change in melting temperature by SYPRO-dye based thermal shift assay
[7] = target: Bromodomain-containing protein 4 (Homo sapiens) (UniProt O60885); test: Inhibition of human BRD4-BD1 at 10 uM relative to control
[8] = target: Platelet-derived growth factor receptor alpha (Homo sapiens) (UniProt P16234); test: Inhibition of recombinant human PDGFRalpha (550 to end residues) at 10 uM using poly(Glu, Tyr) 4:1 as substrate measured after 40 mins in presence of [gamma33P]ATP by scintillation counting method relative to control
[9] = target: Fibroblast growth factor receptor 2 (Homo sapiens) (UniProt P21802); test: Inhibition of recombinant human FGFR2 (456 to 770 residues) at 10 uM using poly(Glu, Tyr) 4:1 as substrate measured after 40 mins in presence of [gamma33P]ATP by scintillation counting method relative to control
[10] = target: Cyclin-dependent kinase-like 2 (Homo sapiens) (UniProt Q92772); test: Inhibition of human CDKL2 at 10 uM by radiometric method relative to control
[11] = target: Protein arginine N-methyltransferase 6 (Homo sapiens) (UniProt Q96LA8); test: Inhibition of human PRMT6 at 10 uM relative to control
Homo sapiens [12] = species on record: Homo sapiens; test: Inhibition of recombinant full length human Aurora A I31F mutant at 10 uM using LRRASLG as substrate incubated for 40 mins in presence of [gamma-33P]-ATP by scintillation counting method relative to control
[13] = target: Cyclin-dependent kinase 5/CDK5 activator 1 (Homo sapiens) (UniProt Q00535+Q15078); test: Inhibition of recombinant full-length human CDK5/p25 at 10 uM using histone H1 as substrate measured after 40 mins in presence of [gamma33P]ATP by scintillation counting method relative to control; type: protein-complex assay
[14] = target: Epidermal growth factor receptor (Homo sapiens) (UniProt P00533); test: Inhibition of recombinant human EGFR (696 to end residues) at 10 uM using poly(Glu, Tyr) as substrate measured after 40 mins in presence of [gamma33P]ATP by scintillation counting method relative to control
[15] = target: CDK6/cyclin D3 (Homo sapiens) (UniProt P30281+Q00534); test: Inhibition of recombinant full-length human CDK6/cyclinD3 at 10 uM using histone H1 as substrate measured after 40 mins in presence of [gamma33P]ATP by scintillation counting method relative to control; type: protein-complex assay
[16] = target: Tyrosine-protein kinase Lck (Homo sapiens) (UniProt P06239); test: Inhibition of recombinant full-length human LCK at 10 uM using KVEKIGEGTYGVVYK as substrate measured after 40 mins in presence of [gamm33P]ATP by scintillation counting method relative to control
[17] = target: Mitogen-activated protein kinase kinase kinase kinase 4 (Homo sapiens) (UniProt O95819); test: Inhibition of recombinant human MAP4K4 (1 to 328 residues) at 10 uM using RLGRDKYKTLRQIRQ as substrate measured after 40 mins in presence of [gamma33P]ATP by scintillation counting method relative to control
[18] = target: Serine/threonine-protein kinase 38-like (Homo sapiens) (UniProt Q9Y2H1); test: Inhibition of recombinant human NDR2 (83 to end residues) at 10 uM using RSRSRSRSRSRSRSR as substrate measured after 40 mins in presence of [gamma33P]ATP by scintillation counting method relative to control
[19] = target: CDK12/Cyclin K (Homo sapiens) (UniProt O75909+Q9NYV4); test: Inhibition of full-length recombinant human CDK12/cyclinK at 10 uM using RSRSRSRSRSRSRSR as substrate after 40 mins by in presence of [gamma33P]ATP by scintillation counting method relative to control; type: protein-complex assay
[20] = target: Inhibitor of nuclear factor kappa-B kinase subunit epsilon (Homo sapiens) (UniProt Q14164); test: Inhibition of full length recombinant human IKKepsilon at 10 uM using casein as substrate after 40 mins in presence of [gamma33P]ATP by scintillation counting method relative to control
Homo sapiens [21] = species on record: Homo sapiens; test: Inhibition of TEAD transcriptional activity in human HCT116 cells assessed as reduction in CYR61 expression by qRT-PCR analysis; type: cell-based
[22] = target: Serine/threonine-protein kinase pim-1 (Homo sapiens) (UniProt P11309); test: Inhibition of recombinant full-length human PIM1 at 10 uM using KKRNRTLTV as substrate measured after 40 mins in presence of [gamma33P]ATP by scintillation counting method relative to control
[23] = target: SRSF protein kinase 1 (Homo sapiens) (UniProt Q96SB4); test: Inhibition of recombinant human SRPK1 (2 to end residues) at 10 uM using RSRSRSRSRSRSRSR as substrate measured after 40 mins in presence of [gamma33P]ATP by scintillation counting method relative to control
[24] = target: Ribosomal protein S6 kinase alpha-4 (Homo sapiens) (UniProt O75676); test: Inhibition of recombinant human MSK2 (2 to end residues) at 10 uM using GRPRTSSFAEGKK as substrate measured after 40 mins in presence of [gamma33P]ATP by scintillation counting method relative to control
[25] = target: T1, Transcriptional enhancer factor TEF-3; test: Binding affinity to Flag-tagged TEAD4 (unknown origin) expressed in HEK293T cells assessed as modification in Cys367 residue at 50 uM after 4 hrs by MS analysis; type: cell-based

T1 sequence (Q15561 whole entry, the tested form may be a part): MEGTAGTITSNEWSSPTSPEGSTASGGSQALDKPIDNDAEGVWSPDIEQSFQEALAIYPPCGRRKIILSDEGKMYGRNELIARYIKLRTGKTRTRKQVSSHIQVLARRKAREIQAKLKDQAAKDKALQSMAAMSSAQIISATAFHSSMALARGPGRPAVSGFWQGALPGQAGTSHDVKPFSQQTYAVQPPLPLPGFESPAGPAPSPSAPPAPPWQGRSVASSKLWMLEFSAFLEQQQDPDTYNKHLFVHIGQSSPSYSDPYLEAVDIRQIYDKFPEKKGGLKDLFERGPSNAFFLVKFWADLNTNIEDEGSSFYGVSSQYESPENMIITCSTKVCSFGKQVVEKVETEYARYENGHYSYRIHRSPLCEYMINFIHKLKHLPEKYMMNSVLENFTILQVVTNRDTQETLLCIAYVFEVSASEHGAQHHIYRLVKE
Sequence of Cyclin-dependent kinase 5/CDK5 activator 1 (Homo sapiens) (Q00535 whole entry): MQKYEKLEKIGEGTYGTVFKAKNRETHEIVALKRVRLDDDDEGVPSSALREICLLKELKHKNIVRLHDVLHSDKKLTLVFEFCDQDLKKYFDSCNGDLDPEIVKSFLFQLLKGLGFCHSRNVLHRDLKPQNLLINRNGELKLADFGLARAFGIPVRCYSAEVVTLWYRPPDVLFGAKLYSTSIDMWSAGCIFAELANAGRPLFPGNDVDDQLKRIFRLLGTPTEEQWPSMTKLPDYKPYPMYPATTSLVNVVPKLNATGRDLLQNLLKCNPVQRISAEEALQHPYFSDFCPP
Sequence of Cyclin-dependent kinase 5/CDK5 activator 1 (Homo sapiens) (Q15078 99-307 partner limits assumed): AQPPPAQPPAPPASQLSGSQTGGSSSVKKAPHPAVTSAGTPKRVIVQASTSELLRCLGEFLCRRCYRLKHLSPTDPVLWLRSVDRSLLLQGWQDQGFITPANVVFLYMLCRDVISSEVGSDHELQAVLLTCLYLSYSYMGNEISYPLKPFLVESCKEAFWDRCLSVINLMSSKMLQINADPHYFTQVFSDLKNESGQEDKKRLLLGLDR
Sequence of Cyclin-dependent kinase-like 2 (Homo sapiens) (Q92772 whole entry): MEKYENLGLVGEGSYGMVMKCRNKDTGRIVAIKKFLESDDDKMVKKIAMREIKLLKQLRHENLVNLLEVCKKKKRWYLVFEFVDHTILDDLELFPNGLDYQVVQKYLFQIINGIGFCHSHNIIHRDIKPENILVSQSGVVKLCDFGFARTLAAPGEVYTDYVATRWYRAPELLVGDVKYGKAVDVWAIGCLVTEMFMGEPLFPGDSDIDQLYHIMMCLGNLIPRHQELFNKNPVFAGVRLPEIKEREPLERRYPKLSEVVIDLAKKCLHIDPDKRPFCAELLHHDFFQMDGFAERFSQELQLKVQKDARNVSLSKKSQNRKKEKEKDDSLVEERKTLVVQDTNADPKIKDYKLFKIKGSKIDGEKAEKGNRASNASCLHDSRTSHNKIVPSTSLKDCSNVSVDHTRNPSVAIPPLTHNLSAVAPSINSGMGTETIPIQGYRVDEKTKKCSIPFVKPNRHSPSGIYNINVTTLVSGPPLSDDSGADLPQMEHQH
Sequence of Serine/threonine-protein kinase 26 (Homo sapiens) (Q9P289 2-416 limits assumed): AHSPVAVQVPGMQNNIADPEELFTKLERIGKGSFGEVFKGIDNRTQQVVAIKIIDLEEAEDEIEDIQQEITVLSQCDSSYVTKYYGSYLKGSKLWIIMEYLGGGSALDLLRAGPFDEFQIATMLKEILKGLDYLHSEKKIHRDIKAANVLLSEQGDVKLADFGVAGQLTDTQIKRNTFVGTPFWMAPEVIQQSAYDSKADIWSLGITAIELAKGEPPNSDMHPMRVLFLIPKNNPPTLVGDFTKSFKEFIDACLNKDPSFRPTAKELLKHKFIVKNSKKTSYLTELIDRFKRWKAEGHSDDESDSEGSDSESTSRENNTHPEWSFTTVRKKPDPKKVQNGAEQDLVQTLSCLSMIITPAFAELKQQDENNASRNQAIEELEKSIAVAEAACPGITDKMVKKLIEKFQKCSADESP
Sequence of Epidermal growth factor receptor (Homo sapiens) (P00533 whole entry): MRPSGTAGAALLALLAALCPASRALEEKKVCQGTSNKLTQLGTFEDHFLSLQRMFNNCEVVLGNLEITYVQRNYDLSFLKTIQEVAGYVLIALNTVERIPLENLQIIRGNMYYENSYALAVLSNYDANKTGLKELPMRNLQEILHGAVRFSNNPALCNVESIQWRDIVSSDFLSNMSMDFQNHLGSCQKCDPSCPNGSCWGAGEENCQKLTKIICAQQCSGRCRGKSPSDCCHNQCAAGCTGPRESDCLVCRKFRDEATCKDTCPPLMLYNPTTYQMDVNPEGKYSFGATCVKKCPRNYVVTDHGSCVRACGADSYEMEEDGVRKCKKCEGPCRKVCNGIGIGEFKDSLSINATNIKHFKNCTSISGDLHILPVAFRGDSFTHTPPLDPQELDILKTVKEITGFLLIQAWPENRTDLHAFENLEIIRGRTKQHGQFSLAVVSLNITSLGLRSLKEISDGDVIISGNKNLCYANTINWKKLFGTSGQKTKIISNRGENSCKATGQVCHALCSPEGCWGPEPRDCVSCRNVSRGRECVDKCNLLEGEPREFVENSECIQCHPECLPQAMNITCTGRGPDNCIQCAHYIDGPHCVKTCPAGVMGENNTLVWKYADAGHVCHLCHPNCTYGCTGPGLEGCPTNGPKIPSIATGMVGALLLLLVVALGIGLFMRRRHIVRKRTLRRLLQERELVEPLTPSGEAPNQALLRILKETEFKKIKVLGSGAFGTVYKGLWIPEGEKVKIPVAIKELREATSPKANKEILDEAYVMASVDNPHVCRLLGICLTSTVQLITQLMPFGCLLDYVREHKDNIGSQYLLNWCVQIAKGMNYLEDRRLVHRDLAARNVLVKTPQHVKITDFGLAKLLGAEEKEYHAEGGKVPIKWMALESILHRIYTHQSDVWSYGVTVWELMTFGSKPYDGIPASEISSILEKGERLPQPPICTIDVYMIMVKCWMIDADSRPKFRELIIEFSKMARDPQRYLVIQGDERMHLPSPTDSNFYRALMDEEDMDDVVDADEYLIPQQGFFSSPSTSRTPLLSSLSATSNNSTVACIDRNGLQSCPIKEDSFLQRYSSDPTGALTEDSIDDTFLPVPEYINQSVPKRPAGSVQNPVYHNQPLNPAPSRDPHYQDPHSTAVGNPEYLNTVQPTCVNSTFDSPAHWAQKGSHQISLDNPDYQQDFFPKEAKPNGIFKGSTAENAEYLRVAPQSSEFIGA
Sequence of Platelet-derived growth factor receptor alpha (Homo sapiens) (P16234 whole entry, the tested form may be a part): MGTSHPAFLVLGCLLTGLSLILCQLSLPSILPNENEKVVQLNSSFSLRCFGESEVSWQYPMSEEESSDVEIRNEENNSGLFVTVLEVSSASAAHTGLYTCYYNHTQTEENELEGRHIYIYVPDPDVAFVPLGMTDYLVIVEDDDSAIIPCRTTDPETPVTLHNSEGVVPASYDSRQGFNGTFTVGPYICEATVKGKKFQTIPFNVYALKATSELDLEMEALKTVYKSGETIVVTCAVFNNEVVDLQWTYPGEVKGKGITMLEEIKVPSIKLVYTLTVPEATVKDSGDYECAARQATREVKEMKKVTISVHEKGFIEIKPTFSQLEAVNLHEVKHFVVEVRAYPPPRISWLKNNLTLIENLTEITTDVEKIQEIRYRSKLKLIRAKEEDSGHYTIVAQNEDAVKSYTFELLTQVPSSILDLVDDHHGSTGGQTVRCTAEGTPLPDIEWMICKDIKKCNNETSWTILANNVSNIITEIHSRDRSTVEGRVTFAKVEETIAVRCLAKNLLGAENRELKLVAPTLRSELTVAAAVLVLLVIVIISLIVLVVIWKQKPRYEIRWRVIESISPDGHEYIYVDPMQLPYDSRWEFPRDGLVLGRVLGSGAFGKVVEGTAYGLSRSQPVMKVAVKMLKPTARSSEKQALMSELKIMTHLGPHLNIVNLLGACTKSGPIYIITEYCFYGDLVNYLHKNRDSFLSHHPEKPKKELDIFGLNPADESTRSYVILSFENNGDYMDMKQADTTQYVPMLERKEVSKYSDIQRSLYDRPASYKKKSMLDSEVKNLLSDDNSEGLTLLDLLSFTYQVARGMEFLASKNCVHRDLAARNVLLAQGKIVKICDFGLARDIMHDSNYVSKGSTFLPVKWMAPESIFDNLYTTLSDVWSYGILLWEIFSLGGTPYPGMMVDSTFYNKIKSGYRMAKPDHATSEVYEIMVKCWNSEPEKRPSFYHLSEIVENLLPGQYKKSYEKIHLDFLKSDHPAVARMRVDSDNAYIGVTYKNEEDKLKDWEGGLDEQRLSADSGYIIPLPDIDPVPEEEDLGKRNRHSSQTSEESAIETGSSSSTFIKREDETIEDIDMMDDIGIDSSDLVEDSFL
Sequence of Protein arginine N-methyltransferase 6 (Homo sapiens) (Q96LA8 whole entry, looked up): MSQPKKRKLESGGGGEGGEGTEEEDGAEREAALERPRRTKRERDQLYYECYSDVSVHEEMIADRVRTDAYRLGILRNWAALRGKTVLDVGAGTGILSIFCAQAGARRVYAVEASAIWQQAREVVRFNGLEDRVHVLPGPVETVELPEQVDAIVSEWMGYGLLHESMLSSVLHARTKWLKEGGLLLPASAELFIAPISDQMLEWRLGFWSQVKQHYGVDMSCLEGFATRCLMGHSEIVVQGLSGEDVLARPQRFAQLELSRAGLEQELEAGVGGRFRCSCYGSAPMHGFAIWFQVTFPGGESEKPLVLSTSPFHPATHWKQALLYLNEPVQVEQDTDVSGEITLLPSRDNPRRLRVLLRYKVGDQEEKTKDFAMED
Sequence of Transcriptional enhancer factor TEF-3 (Homo sapiens), Q15561 [C367A] (Q15561 whole entry C367A): as the sequence (Q15561 whole entry, the tested form may be a part) above, with C367A counted along it

C=CS(=O)(=O)Nc1ccc(Cc2ccc3ccccc3c2)cc1
inhibition [1]: 3%
inhibition [2]: 2%
inhibition [3]: 1%
inhibition [4]: Active
inhibition [5]: 5%
ΔTm [6]: 1.2 °C
inhibition [7]: 10%
inhibition [8]: 1%
inhibition [9]: -4%
inhibition [10]: 3%
inhibition [11]: 7%
inhibition (Homo sapiens [12]): -10%
inhibition [13]: 0%
inhibition [14]: 13%
inhibition [15]: -1%
inhibition [16]: 6%
inhibition [17]: 7%
inhibition [18]: -6%
inhibition [19]: 11%
inhibition [20]: 5%
inhibition (Homo sapiens [21]): Dose-dependent effect
inhibition [22]: -3%
inhibition [23]: 8%
inhibition [24]: 12%
Activity [25]: Active
